Measurements taken from PMC7515946, “Targeting of Perforin Inhibitor into the Brain Parenchyma Via a Prodrug Approach Can Decrease Oxidative Stress and Neuroinflammation and Improve Cell Survival” (Molecular Neurobiology, 2020).
Where “and” joins values, the source holds several entries; their conditions need not be identical. Identical values can stand only once. Entries after “also recorded” stand apart in the source; their conditions may differ.

Columns and labels:
mouse primary astrocytes [1] = test system: mouse primary astrocytes; parameters: method as in PMID 31492955; settings: in the presence of a specific LAT1 inhibitor; cited from earlier work
[2] = test system: MCF-7 human breast adenocarcinoma cells; assay: Cell viability of MCF-7 cells with cisplatin co-treatment (resazurin); type: cell-based; settings: 10–400 μM together with 100 μM cisplatin, 72 h
[3] = parameters: method as in PMID 27266990; settings: during 5 h incubation; cited from earlier work
LAT1 [4] = molecular target: T1, LAT1 (Mus musculus, UniProt Q9Z127); assay: Ability to bind to LAT1: inhibition of [14C]-L-leucine uptake in astrocytes; type: cell-based; settings: mouse primary astrocytes, 0.76 μM [14C]-L-leucine, 5 min, 37 °C
T1 construct: endogenous in cells; host or cells: mouse primary astrocytes (C57BL/6JOlaHsd), cortex and hippocampi
Procedure: For the transporter-binding studies, the astrocytes were seeded on 24-well plates with a density of 10 × 10^4 cells/well 3 days before the experiments. After removal of the culture medium, the cells were carefully washed with pre-warmed HBSS (Hank’s balanced salt solution) containing choline chloride (125 mM), KCl (4.8 mM), MgSO4 (1.2 mM), KH2PO4 (1.2 mM), CaCl2 (1.3 mM), glucose (5.6 mM), and HEPES (25 mM) adjusted to pH 7.4 with 1 M NaOH. The cells were pre-incubated with 500 μL of pre-warmed HBSS at 37 °C for 5 min before the experiments. To study the ability of studied compounds to inhibit the uptake of a known LAT1 substrate, the cells were incubated at 37 °C for 5 min with an uptake buffer (HBSS, 250 μL) containing 0.76 μM (0.25 mCi/mL or […]) of [^14C]-L-leucine (PerkinElmer, Waltham, MA, USA) and 0.1–1000 μM of studied compound (or HBSS as blank). After incubation, the uptake was stopped by adding 500 μL of ice-cold HBSS, and the cells were washed two times with ice-cold HBSS (2 × 500 μL). The cells were then lysed with 500 μL of NaOH (0.1 M) for 60 min and the lysate was mixed with 3.5 mL of Emulsifier-Safe cocktail (Ultima Gold, PerkinElmer, Waltham, MA, USA). The radioactivity in the cells was measured by liquid scintillation counting (MicroBeta^2 counter, PerkinElmer Waltham, MA, USA). Half of the maximum inhibitory concentration (IC50) values were calculated by nonlinear regression analysis (fitting the curve to log (concentration) vs. remaining normalized viability).

[5] = Intracellular unbound concentrations in astrocytes (RED dialysis, Kp,uu,cell); type: in vitro ADME; settings: mouse; for fraction unbound at 4 h, 100 μM: astrocyte homogenate, RED, 37 °C, read-out: fu,cell (unbound fraction)
Procedure: (§1) The non-specific binding of compounds (100 μM) was determined in astrocyte homogenate by using the Rapid Equilibrium Dialysis (RED) device (Thermo Fisher Scientific, Inc., Waltham, MA, USA). Briefly, the astrocyte cell suspension (10 × 10^6 cells/mL) was homogenized with HBSS by the SoniPerp 150 Plus disintegrator (MSE Ltd., London, UK) (2 s × 3). The studied compound was mixed with 100 μL of cell homogenate and added to the reaction chamber. A 350-μL HBSS buffer was added to the buffer chamber. The dialysis plate was incubated at 37 °C for 4 h with shaking. Fifty microliters of samples were taken from the reaction and buffer chambers and equal size of the buffer or blank homogenate were added, respectively, to yield identical matrices. The proteins were precipitated by adding 100 μL of ice-cold ACN (including the selected internal standard; see above), and the supernatants were collected for LC-MS analysis (see above) after centrifugation at 12,000 × g for 10 min. The unbound drug fraction (fu,cell) was calculated by dividing concentration in the buffer chamber by concentration in the reaction chamber and taking into account the effect of homogenate dilution factor (D = 45 for 10 × 10^6 cells/mL cell suspension according to their weight of the cells) as described earlier.
(§2) The compound concentration ratios in astrocytes (Kp) was determined at 0.01–1.0 μM concentrations by comparing the cellular uptake amount (nmol) in cell lysates (0.1 M NaOH) per astrocyte cell volume (0.05810^−15 L/cell for 10 × 10^4 cells/well) to the concentrations (nM) detected from the surrounding buffer (HBSS) collected before cell lysing as described previously. The unbound drug concentration ratio (Kp,uu) was then calculated by multiplying the drug concentration ratio (Kp) by unbound drug fraction (fu,cell).

LAT1 [6] = test system: LAT1; parameters: method as in PMID 31610281; settings: human breast adenocarcinoma cells (MCF-7); read-out: IC50 of [14C]-L-leucine uptake (LAT1 binding) in MCF-7 cells; cited from earlier work
[7] = parameters: method as in PMID 26705152; settings: cited from earlier work
[8] = parameters: method as in PMID 26705152; settings: cited from earlier work; remark: listed apart in the source
[9] = parameters: method as in PMID 31492955; settings: cited from earlier work
[10] = parameters: method as in PMID 31492955; settings: neurons, astrocytes, and microglia homogenates; cited from earlier work
[11] = molecular target: T2, purified human β-site amyloid precursor protein (APP) cleaving enzyme 1 (BACE1) (Homo sapiens, UniProt P56817); assay: BACE1 FRET inhibition assay; type: biochemical; settings: 1 and 10 μM, respectively, 30 min
T2 construct: purchased AnaSpec, Inc. (Fremont, CA, USA), SensoLyte 520 BACE1 Assay kit
Source text: A fluorometric assay was used to screen the inhibitory effect of the studied compounds on purified human β-site amyloid precursor protein (APP) cleaving enzyme 1 (BACE1) using a fluorescence resonance energy transfer (FRET) peptide technique (SensoLyte© 520 BACE1 Assay kit, AnaSpec, Inc., Fremont, CA, USA) according to the manufacturer’s protocol. […] The sequence of the FRET peptide has been derived from the β-secretase cleavage site of β-amyloid precursor protein (APP) with Swedish mutation, which enhances β-secretase to process APP resulting in an early onset of AD. Thus, active β-secretase cleaved the FRET substrate into two separate fragments resulting in the release of HiLyte™ Fluor 488 fluorescence that was measured by the Envision plate reader (EnVision, Perkin Elmer, Waltham, MA, USA) at λex 490 nm and λem 520 nm.

mouse primary astrocytes [12] = assay: Intracellular unbound concentrations in astrocytes (RED dialysis, Kp,uu,cell); type: in vitro ADME; settings: below 500 nM concentrations
Procedure: as §1, §2

T1 sequence (Q9Z127 whole entry): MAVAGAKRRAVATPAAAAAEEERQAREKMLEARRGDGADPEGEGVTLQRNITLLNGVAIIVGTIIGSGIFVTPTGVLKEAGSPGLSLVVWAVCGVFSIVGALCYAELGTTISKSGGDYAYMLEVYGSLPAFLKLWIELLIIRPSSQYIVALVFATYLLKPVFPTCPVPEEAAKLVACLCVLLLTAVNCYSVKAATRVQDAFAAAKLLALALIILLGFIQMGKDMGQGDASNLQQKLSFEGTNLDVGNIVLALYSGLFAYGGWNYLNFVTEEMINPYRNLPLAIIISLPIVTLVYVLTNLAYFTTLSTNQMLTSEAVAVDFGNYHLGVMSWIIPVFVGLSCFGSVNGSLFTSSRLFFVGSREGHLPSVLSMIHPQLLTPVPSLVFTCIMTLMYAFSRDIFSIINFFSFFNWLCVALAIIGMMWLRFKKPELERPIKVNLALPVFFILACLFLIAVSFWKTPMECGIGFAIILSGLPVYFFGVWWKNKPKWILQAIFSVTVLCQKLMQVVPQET
T1 sequence (P10852 whole entry partner): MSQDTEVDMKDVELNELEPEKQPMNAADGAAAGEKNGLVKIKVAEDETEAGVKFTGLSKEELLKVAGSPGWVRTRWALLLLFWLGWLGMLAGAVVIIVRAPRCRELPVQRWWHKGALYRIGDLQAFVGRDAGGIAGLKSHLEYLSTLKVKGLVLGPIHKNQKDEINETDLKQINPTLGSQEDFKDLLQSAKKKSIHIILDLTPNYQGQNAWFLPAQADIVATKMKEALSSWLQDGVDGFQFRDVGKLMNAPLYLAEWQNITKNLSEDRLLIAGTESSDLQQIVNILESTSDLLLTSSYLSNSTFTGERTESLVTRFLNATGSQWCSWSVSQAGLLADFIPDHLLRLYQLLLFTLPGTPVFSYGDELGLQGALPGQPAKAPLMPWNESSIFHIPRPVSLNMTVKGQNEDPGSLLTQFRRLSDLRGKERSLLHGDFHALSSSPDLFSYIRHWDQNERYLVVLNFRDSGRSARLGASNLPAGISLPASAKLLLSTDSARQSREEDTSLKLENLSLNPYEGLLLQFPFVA
T2 sequence (P56817 22-501 limits assumed): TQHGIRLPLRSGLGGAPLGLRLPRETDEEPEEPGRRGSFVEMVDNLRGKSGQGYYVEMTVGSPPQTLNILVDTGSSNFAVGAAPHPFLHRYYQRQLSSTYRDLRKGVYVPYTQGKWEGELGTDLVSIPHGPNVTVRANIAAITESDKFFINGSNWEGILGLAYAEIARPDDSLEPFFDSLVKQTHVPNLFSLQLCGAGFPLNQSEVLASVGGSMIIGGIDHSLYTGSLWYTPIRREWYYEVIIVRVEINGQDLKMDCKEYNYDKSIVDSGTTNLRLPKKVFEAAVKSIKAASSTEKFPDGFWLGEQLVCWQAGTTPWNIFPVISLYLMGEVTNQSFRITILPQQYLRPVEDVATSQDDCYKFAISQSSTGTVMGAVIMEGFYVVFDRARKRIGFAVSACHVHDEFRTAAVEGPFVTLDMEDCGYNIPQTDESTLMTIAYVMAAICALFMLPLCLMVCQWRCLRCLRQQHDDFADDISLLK

| Structure (SMILES) | Inhibition of cellular uptake into primary astrocytes by a specific LAT1 inhibitor (mouse primary astrocytes [1]) | Reversal of cisplatin-induced effects on MCF-7 cell viability [2] | Prodrug bioconverted in mouse brain S9 subcellular fraction [3] | IC50 (LAT1 [4]) | Kp uu at 50 nM ([5]; primary astrocytes, astrocytes, 50 nM concentration, read-out: Kp,uu,cell (unbound drug accumulation ratio)) | fraction unbound at 4 h, 100 μM [5] | IC50 (LAT1 [6]) | Stability in human plasma [7] | Bioconversion half-life in rat liver S9 subcellular fraction [8] | Bioconversion half-life in primary mouse astrocyte homogenate [9] | Half-lives in brain cell homogenates [10] | Inhibition of BACE1 activity [11] | IC50 in astrocytes (inhibition of [14C]-L-leucine uptake) (LAT1 [4]) | Detection in astrocyte cell lysates (mouse primary astrocytes [12]) |
| --- | --- | --- | --- | --- | --- | --- | --- | --- | --- | --- | --- | --- | --- | --- |
| N[C@H](Cc1cccc(C(=O)OCc2ccc(-c3ccc(-c4ccc5c(c4)COC5=O)s3)cc2)c1)C(=O)O [PFI-PD] | over 70% | able to revert the cisplatin-induced effects | approximately 50% | 4 µM and 3.5 µM | 2.01 ± 0.91 | 7e-05 ± 4e-05 | 1.54 µM | completely stable | approximately 55 min | approximately 6 h | 4 to 6 h | – | – | – |
| O=C1OCc2cc(-c3ccc(-c4ccc(CO)cc4)s3)ccc21 [PFI] | – | not able to revert the cisplatin-induced effects | – | – | – | 0.0053 ± 0.0001 | – | – | – | – | – | 71–96% | did not exhibit any interaction with LAT1; also recorded: No inhibition | not detected |
